What was measured:
[1] = biological target: T1, human MrgprX1 (Homo sapiens, UniProt Q96LB2); test: MrgprX1 positive allosteric modulator (PAM) calcium FLIPR assay in HEK293 cells; type: cell-based; settings: PAM activity in presence of EC20 concentration of BAM8-22; HEK293 cells stably transfected with human MrgprX1
T1 construct: expressed in transfected cells
Method: HEK293 cells stably transfected with human MrgprX1 were plated onto poly-D-lysine-coated, black-walled, 96-well plates at a seeding density of 12,000 cells/well and grown for two days. On the day of the experiment, cells were incubated with Fluo-4 AM 2 μM, pluronic acid 0.04% and Trypan Red 1% in HBSS (pH 7.4, 100 μL) for 1 h at 37° C. For each different passage of cells, a BAM8-22 dose response was first conducted and the BAM8-22 EC20 determined. Test compounds were then dissolved and serially diluted in DMSO, further diluted with Trypan Red (1%)-containing HBSS (50 μL) and added to cells (0.33% DMSO concentration by volume) to first monitor for agonist activity. After 2.5 min, BAM8-22 at 4-fold EC20 (50 μL) was added to cells (0.25% DMSO concentration by volume) and the cells imaged on the FLIPR for an additional 2 minutes to monitor the test compounds for PAM activity. Finally, data were normalized to fluorescence signals obtained from 250 nM of BAM8-22 (maximum) and BAM8-22 at its EC20 concentration (minimum). EC50 of a test compound was defined as the concentration required to provoke a response halfway between the minimum and maximum response in the presence of EC20 concentration of BAM8-22.

[2] = Metabolic stability in mouse liver microsomes; type: in vitro ADME; settings: mouse liver microsomes 0.5 mg/mL, NADPH, compound 5 μM, 60 min
Method: (§1) The metabolic stability was evaluated using mouse liver microsomes. For the cytochrome P450 (CYP)-mediated metabolism, the reaction was carried out with 100 mM potassium phosphate buffer, pH 7.4, in the presence of NADPH regenerating system (1.3 mM NADPH, 3.3 mM glucose 6-phosphate, 3.3 mM MgCl2, 0.4 U/mL glucose-6-phosphate dehydrogenase, 50 μM sodium citrate). Reactions, in triplicate, were initiated by addition of the liver microsomes to the incubation mixture (compound final concentration was 5 μM; 0.5 mg/mL microsomes). After 60 min of incubation, aliquots of the mixture were removed and the reaction quenched by addition of three times the volume of ice-cold acetonitrile spiked with the internal standard. Compound disappearance was monitored over time using a liquid chromatography and tandem mass spectrometry (LC/MS/MS) method.

[3] = Metabolic stability in human liver microsomes; type: in vitro ADME
Method: [The procedure below names another species; the source lists this species under the same test.] as §1

[4] = In vivo oral pharmacokinetics in mice; settings: 100 mg/kg oral; for Tmax: male, CD-1, mouse
Method: Male CD-1 mice between 25 and 30 g were obtained from Harlan, and maintained on a 12-h light-dark cycle with ad libitum access to food and water. Three animals were used per time-point for each treatment group. Compound 7a was dissolved in 5% dimethyl acetamide, 10% Tween80, 10% Cremophor EL, 25% PEG400, and 50% water, and administered to male mice as a single oral dose by oral gavage of 100 mg/kg. The mice were sacrificed at various time points post-drug administration. Animals were euthanized with CO2, and blood samples were collected in heparinized microtubes by cardiac puncture. Brain and spinal cord tissues were dissected and immediately flash frozen (−80° C.). Blood samples were spun at 2,000×g for 15 min, plasma was removed and stored at −80° C. until LC-MS analysis. Prior to extraction, frozen samples were thawed on ice. The calibration curves were developed using plasma and brain from naïve animals as a matrix. Plasma samples (50 μL), were processed using a single liquid extraction method by addition of 300 μL of acetonitrile as with internal standard (losartan: 0.5 μM), followed by vortex mixing for 30 sec and then centrifugation at 10,000×g for 10 min at 4° C. Fifty microliter of the supernatant is diluted with 50 μL of water and transferred to 250 μL polypropylene autosampler vials sealed with a Teflon cap. For brain and spinal cord tissue analysis, samples were weighed in the range of (80-100 mg) to which 2-volumes of acetonitrile as with internal standard (losartan: 0.5 μM) was added and homogenized for extraction of the analyte. Samples were vortex mixed for 1 min and centrifuged as above. A 20 μL aliquot of supernatant was diluted with 20 μL of water and transferred to 250 μL polypropylene autosampler vials sealed with a Teflon cap. A volume of 3 μL was injected onto the ultra-performance liquid chromatography (UPLC) instrument for quantitative analysis by LC-MS/MS. Samples were analyzed on a Thermo Scientific Accela UPLC system coupled to Accela open autosampler at ambient temperature with an Agilent Eclipse Plus column (100×2.1 mm i.d.) packed with a 1.8 μm C18 stationary phase. The autosampler was temperature controlled and operated at 10° C. The mobile phase used for the chromatographic separation was composed of acetonitrile/water containing 0.1% formic acid and with a flow rate of 0.4 mL/min for 4.5 min using gradient elution. The column effluent was monitored using TSQ Vantage triple-quadrupole mass-spectrometric detector, equipped with an electrospray probe set in the positive ionization mode. Samples were introduced into the ionization source through a heated nebulized probe (350° C.).

[5] = tested on: MrgprX1 mice after sciatic CCI; test: Chronic constrictive injury (CCI) model, heat hypersensitivity (Hargreaves test); type: in vivo; settings: 100 mg/kg oral gavage
Method: Compound 7a was examined for its ability to attenuate heat hypersensitivity in MrgprX1 mice after receiving sciatic CCI, according to the previously described methods (Proc Natl Acad Sci USA. 2017 Mar. 7; 114(10):E1996-E2005). Paw withdrawal latency (PWL) to noxious heat stimuli was measured with the Hargreaves test. The results are summarized in FIG. 2 (** P<0.01, *** P<0.001 vs. vehicle; ##P<0.01, ###P<0.001, ####P<0.0001 vs. pre-drug. Two-way mixed-model ANOVA with Bonferroni post hoc test. Data are expressed as mean+SD).

[6] = intrathecal injection; cited from earlier work

T1 sequence (Q96LB2 whole entry): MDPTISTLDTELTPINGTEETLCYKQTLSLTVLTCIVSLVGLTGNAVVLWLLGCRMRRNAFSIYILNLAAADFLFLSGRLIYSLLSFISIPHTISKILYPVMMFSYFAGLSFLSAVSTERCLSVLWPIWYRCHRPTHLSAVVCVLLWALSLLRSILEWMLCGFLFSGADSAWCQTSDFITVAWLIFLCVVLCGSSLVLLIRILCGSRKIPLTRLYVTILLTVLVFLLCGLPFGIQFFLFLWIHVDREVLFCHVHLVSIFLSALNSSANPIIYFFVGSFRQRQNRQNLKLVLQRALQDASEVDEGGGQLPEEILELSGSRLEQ

Row | Compound | EC50 [1] | % remaining after 1-h incubation, Mouse [2] | % remaining after 1-h incubation, Human [3] | AUC0-last ([4]; Brain) | Cmax ([4]; Brain) | Cmax ([4]; Plasma) | Cmax ([4]; Spinal cord) | Tmax ([4]; Brain) | Tmax ([4]; Plasma) | Tmax ([4]; Spinal cord) | ipsilateral paw withdrawal latency (PWL) to noxious heat ([5]; 1-2 hours after dosing, day 12 and day 26 post-CCI, vs pre-drug level) | contralateral paw withdrawal latency (PWL) to noxious heat ([5]; compared to pre-drug baseline or vehicle-treated group) | melting point | efficacy in preclinical models of pain [6]
1 | CC(C)(C)c1sc2ncnc(Oc3ccccc3OC(F)(F)F)c2c1-c1ccc(Cl)c(Cl)c1 [Compound 7a, 6-tert-butyl-5-(3,4-dichlorophenyl)-4-(2-(trifluoromethoxy)phenoxy)thieno[2,3-d]pyrimidine] | 100 nM | 25% | >95% | 2.37 ± 0.03 µM·h | 0.82 ± 0.05 µM | 39 ± 5.06 µM | 4.6 ± 0.6 µM | 1.67 ± 0.33 h | 1.67 ± 0.33 h | 1.17 ± 0.44 h | significantly increased from pre-drug level | no significant changes | – | –
2 | Cc1sc2ncnc(Oc3ccccc3F)c2c1-c1ccccc1 [Compound 7bb, 4-(2-fluorophenoxy)-6-methyl-5-phenylthieno[2,3-d]pyrimidine] | 400 nM | <5% | 12% | – | – | – | – | – | – | – | – | – | 158 °C | –
3 | CC(C)(C)c1sc2ncnc(Oc3ccccc3F)c2c1-c1ccccc1 [Compound 7bd, 6-(tert-butyl)-4-(2-fluorophenoxy)-5-phenylthieno[2,3-d]pyrimidine] | 300 nM | <5% | 78% | – | – | – | – | – | – | – | – | – | 81 to 82 °C | –
4 | CC(C)(C)c1sc2ncnc(Oc3c(F)cccc3F)c2c1-c1ccc(Cl)c(Cl)c1 [Compound 7n, 6-tert-butyl-5-(3,4-dichlorophenyl)-4-(2,6-difluorophenoxy)thieno[2,3-d]pyrimidine] | 20 nM | 36% | 93% | – | – | – | – | – | – | – | – | – | 205 °C | –
5 | CCOc1ccccc1NC(=O)c1ccccc1NS(=O)(=O)C1CC1 [ML382, 2-(cyclopropanesulfonamido)-N-(2-ethoxyphenyl)benzamide] | – | – | – | – | – | – | – | – | – | – | – | – | – | showed efficacy

Reference: patent US20240002395A1, “COMPOUNDS AND THEIR USE FOR TREATING NEUROPATHIC PAIN” (The Johns Hopkins University, priority 2020, published 2024)
